From patent US9708336B2, “Metallo-beta-lactamase inhibitors” (priority 2014, dated 2017)
Like-named read-outs stand apart in the source and are kept apart here.

How the values were obtained:
IMP-1 = IMP-1 (Serratia marcescens, UniProt P52699); assay: biochemical; assay type: biochemical; settings: read-out: IMP-1 IC50
[1] = tested on: Klebsiella pneumoniae expressing VIM-1 (IHMA599644); assay: Antibiotic potentiation activity: synergistic concentration (MITC95) with imipenem, OD600 growth; assay type: cell-based; settings: for Klebsiella pneumoniae expressing VIM-1 (IHMA 599644) MITC95: concentration giving 95% inhibition of bacterial growth
Summary of the method: (§1)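 CLB30005 was precultured on Mueller Hinton agar with 8 ug/ml imipenem, the other strains on trypticase soy agar with 5% sheep blood, overnight at 35 °C. Saline suspensions diluted 1:100 in 1.1× CAMHB received compound and 4 μg/ml imipenem, then 22–24 h at 35 °C before absorbance reading.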

[2] = tested on: Serratia marcescens expressing IMP-1 (CL5741); assay: as above; assay type: cell-based; settings: for Serratia marcescens expressing IMP-1 (CL5741) MITC95: concentration giving 95% inhibition of bacterial growth
Summary of the method: as §1

[3] = tested on: Escherichia coli expressing NDM-1 (CLB30016); assay: as above; assay type: cell-based; settings: for Escherichia coli expressing NDM-1 (CLB 30016) MITC95: concentration giving 95% inhibition of bacterial growth
Summary of the method: as §1

VIM-1 = VIM-1 (Pseudomonas aeruginosa (strain ATCC 15692 / DSM 22644 / CIP 104116 / JCM 14847 / LMG 12228 / 1C / PRS 101 / PAO1), UniProt A0A0F7KYQ8); assay: Enzyme activity: determination of IC50, fluorescence assay with CCF2-FA substrate (VIM-1); assay type: biochemical
NDM-1 = NDM-1 (Klebsiella pneumoniae, UniProt C7C422); assay: biochemical; assay type: biochemical; settings: read-out: NDM-1 IC50
Chain of NDM-1 (C7C422 whole entry, looked up, species assumed): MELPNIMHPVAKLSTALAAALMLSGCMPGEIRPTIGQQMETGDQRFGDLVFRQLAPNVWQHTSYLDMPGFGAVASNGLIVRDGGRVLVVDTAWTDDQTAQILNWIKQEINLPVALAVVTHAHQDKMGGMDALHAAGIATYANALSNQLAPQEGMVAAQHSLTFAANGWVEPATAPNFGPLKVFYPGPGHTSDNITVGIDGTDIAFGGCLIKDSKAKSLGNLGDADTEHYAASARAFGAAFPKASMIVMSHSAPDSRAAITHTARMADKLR

[4] = IMP-1 enzyme, CCF2-FA fluorescence assay
[5] = Klebsiella pneumoniae expressing VIM-1 (IHMA599644), 95% growth inhibition
[6] = Serratia marcescens expressing IMP-1 (CL5741), 95% growth inhibition
[7] = Escherichia coli expressing NDM-1 (CLB30016), 95% growth inhibition
[8] = VIM-1 enzyme, CCF2-FA fluorescence assay, read-out: VIM-1 IC50
[9] = NDM-1 enzyme, CCF2-FA fluorescence assay
[10] = IMP-1 enzyme, CCF2-FA substrate
[11] = Klebsiella pneumoniae IHMA599644 (VIM-1), 95% growth inhibition
[12] = Serratia marcescens CL5741 (IMP-1), 95% growth inhibition
[13] = (CLB30016, NDM-1), 95% growth inhibition
[14] = VIM-1 enzyme, CCF2-FA substrate, read-out: VIM-1 IC50
[15] = NDM-1 enzyme, CCF2-FA substrate
[16] = fluorescence assay with CCF2-FA substrate
[17] = fluorescence assay with CCF2-FA substrate, read-out: VIM-1 IC50
[18] = IHMA599644 (VIM-1), 95% inhibition of bacterial growth
[19] = CL5741 (IMP-1), 95% inhibition of bacterial growth
[20] = CLB30016 (NDM-1), 95% inhibition of bacterial growth

Chain of IMP-1 (P52699 whole entry, looked up): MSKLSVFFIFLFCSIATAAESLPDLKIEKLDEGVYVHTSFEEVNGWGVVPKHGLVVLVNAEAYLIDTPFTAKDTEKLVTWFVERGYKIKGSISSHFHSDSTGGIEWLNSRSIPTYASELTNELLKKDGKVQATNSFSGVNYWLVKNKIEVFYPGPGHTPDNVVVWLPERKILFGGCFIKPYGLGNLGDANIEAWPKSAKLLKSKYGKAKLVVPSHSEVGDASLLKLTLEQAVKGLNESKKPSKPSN

## Nc1ccc(-c2cccc(S(N)(=O)=O)c2-c2nnn[nH]2)c2ccncc12 [Example 415, 3-(8-amino-5-isoquinolyl)-2-(1H-tetrazol-5-yl)benzenesulfonamide]
IMP-1; [4]
  IC50: 32.3 nM
[1]; [5]
  Klebsiella pneumoniae MITC95: 3.125 µM
[2]; [6]
  Serratia marcescens MITC95: 1.172 µM
[3]; [7]
  Escherichia coli MITC95: 0.5859 µM
VIM-1; [8]
  IC50: 1.1 nM
NDM-1; [9]
  IC50: 0.58 nM

## NC[C@H]1CC[C@@H](Cc2ccc(-c3ccc(C4CCNC4)cc3)c(-c3nnn[nH]3)c2S(N)(=O)=O)CC1 (stereo partly drawn) [Example 587, 4-(((1s,4s)-4-(aminomethyl)cyclohexyl)methyl)-4′-(pyrrolidin-3-yl)-2-(1H-tetrazol-5-yl)-[1,1′-biphenyl]-3-sulfonamide]
IMP-1; [10]
  IC50: 2.83 nM
[1]; [11]
  Klebsiella pneumoniae MITC95: 6.25 µM
[2]; [12]
  Serratia marcescens MITC95: 1.563 µM
[3]; [13]
  Escherichia coli MITC95: 0.7813 µM
VIM-1; [14]
  IC50: 11.5 nM
NDM-1; [15]
  IC50: 0.798 nM

## Nc1cccc2c(-c3ccc(C(F)(F)F)c(S(N)(=O)=O)c3-c3nn[nH]n3)cc(C(=O)O)nc12 [Example 526, 8-Amino-4-(3-sulfamoyl-2-(2H-tetrazol-5-yl)-4-(trifluoromethyl)phenyl)quinoline-2-carboxylic acid]
IMP-1; [10]
  IC50: 4.58 nM
[1]; [11]
  Klebsiella pneumoniae MITC95: 50 µM
[2]; [12]
  Serratia marcescens MITC95: 100 µM
[3]; [13]
  Escherichia coli MITC95: 25 µM
VIM-1; [14]
  IC50: 1.59 nM
NDM-1; [15]
  IC50: 1.85 nM

## NS(=O)(=O)c1cccc(-c2ccc(CNC(CO)CO)cc2)c1-c1nnn[nH]1 [Example 374, 4′-({[2-hydroxy-1-(hydroxymethyl)ethyl]amino}methyl)-2-(1H-tetrazol-5-yl)biphenyl-3-sulfonamide]
IMP-1; [4]
  IC50: 264 nM
[1]; [5]
  Klebsiella pneumoniae MITC95: 37.5 µM
[2]; [6]
  Serratia marcescens MITC95: 3.125 µM
[3]; [7]
  Escherichia coli MITC95: 0.7813 µM
VIM-1; [8]
  IC50: 277 nM
NDM-1; [9]
  IC50: 16 nM

## NS(=O)(=O)c1nccc(NC2CCCCC2)c1-c1nnn[nH]1 [Example 234, 4-(cyclohexylamino)-3-(1H-tetrazol-5-yl)pyridine-2-sulfonamide]
IMP-1; [16]
  IC50: 1450 nM
[1]
  Klebsiella pneumoniae expressing VIM-1 (IHMA 599644) MITC95: >200 µM
[2]
  Serratia marcescens expressing IMP-1 (CL5741) MITC95: 100 µM
[3]
  Escherichia coli expressing NDM-1 (CLB 30016) MITC95: 4.688 µM
VIM-1; [17]
  IC50: 1170 nM
NDM-1; [16]
  IC50: 24.5 nM

## NS(=O)(=O)c1c(C(F)(F)F)ccc(N2CCCC3(CCNCC3)C2)c1-c1nnn[nH]1 [Example 772, 3-(2,9-diazaspiro[5.5]undec-2-yl)-2-(1H-tetrazol-5-yl)-6-(trifluoromethyl) benzenesulfonamide]
IMP-1; [16]
  IC50: 114 nM
[1]; [18]
  Klebsiella pneumoniae MITC95: 50 µM
[2]; [19]
  Serratia marcescens MITC95: 50 µM
[3]; [20]
  Escherichia coli MITC95: 12.5 µM
VIM-1; [17]
  IC50: 13.9 nM
NDM-1; [16]
  IC50: 33.9 nM

## NS(=O)(=O)c1cccc(-c2ccc(CNC3CCN(C4CCCC4)CC3)cc2)c1-c1nnn[nH]1 [Example 379, 4′-{[(1-cyclopentylpiperidin-4-yl)amino]methyl}-2-(1H-tetrazol-5-yl)biphenyl-3-sulfonamide]
IMP-1; [4]
  IC50: 318 nM
[1]; [5]
  Klebsiella pneumoniae MITC95: 200 µM
[2]; [6]
  Serratia marcescens MITC95: 4.688 µM
[3]; [7]
  Escherichia coli MITC95: 1.563 µM
VIM-1; [8]
  IC50: 639 nM
NDM-1; [9]
  IC50: 27.3 nM

## CN1CCC2(CCN(c3ccc(-c4cccc(S(N)(=O)=O)c4-c4nnn[nH]4)cn3)C2)C1 (stereo not drawn) [Example 632, 3-[6-(7-methyl-2,7-diazaspiro[4.4]nonan-2-yl)-3-pyridyl]-2-(1H-tetrazol-5-yl)benzenesulfonamide]
IMP-1; [10]
  IC50: 254 nM
[1]; [11]
  Klebsiella pneumoniae MITC95: 100 µM
[2]; [12]
  Serratia marcescens MITC95: 6.25 µM
[3]; [13]
  Escherichia coli MITC95: 1.172 µM
VIM-1; [14]
  IC50: 482 nM
NDM-1; [15]
  IC50: 26.8 nM

## NC[C@H]1CC[C@H](c2ccc(CC3CCNCC3)c(S(N)(=O)=O)c2-c2nn[nH]n2)CC1 [Example 589, 3-((1r,4r)-4-(aminomethyl)cyclohexyl)-6-(piperidin-4-ylmethyl)-2-(2H-tetrazol-5-yl)benzenesulfonamide]
IMP-1; [10]
  IC50: 146 nM
[1]; [11]
  Klebsiella pneumoniae MITC95: 9.375 µM
[2]; [12]
  Serratia marcescens MITC95: 4.688 µM
[3]; [13]
  Escherichia coli MITC95: 1.172 µM
VIM-1; [14]
  IC50: 93.9 nM
NDM-1; [15]
  IC50: 8.75 nM

## CC(C)c1ccc(C(F)(F)F)c(S(N)(=O)=O)c1-c1nnn[nH]1 [Example 488, 3-isopropyl-2-(1H-tetrazol-5-yl)-6-(trifluoromethyl)benzenesulfonamide]
IMP-1; [4]
  IC50: 18.8 nM
[1]; [5]
  Klebsiella pneumoniae MITC95: 4.688 µM
[2]; [6]
  Serratia marcescens MITC95: 0.7813 µM
[3]; [7]
  Escherichia coli MITC95: 1.563 µM
VIM-1; [8]
  IC50: 3.44 nM
NDM-1; [9]
  IC50: 7.9 nM

## NS(=O)(=O)c1c(C(F)(F)F)ccc(-c2ccc3c(c2)CNC3)c1-c1nn[nH]n1 [Example 441, 3-(isoindolin-5-yl)-2-(2H-tetrazol-5-yl)-6-(trifluoromethyl)benzenesulfonamide]
IMP-1; [4]
  IC50: 22.1 nM
[1]; [5]
  Klebsiella pneumoniae MITC95: 0.7813 µM
[2]; [6]
  Serratia marcescens MITC95: 1.563 µM
[3]; [7]
  Escherichia coli MITC95: 1.172 µM
VIM-1; [8]
  IC50: 0.838 nM
NDM-1; [9]
  IC50: 11.3 nM

## N=CNCc1ccc(-c2ccc(Br)c(S(N)(=O)=O)c2-c2nn[nH]n2)cc1 [Example 425, N-((4′-bromo-3′-sulfamoyl-2′-(2H-tetrazol-5-yl)-[1,1′-biphenyl]-4-yl)methyl)formimidamide]
IMP-1; [4]
  IC50: 15.9 nM
[1]; [5]
  Klebsiella pneumoniae MITC95: 1.563 µM
[2]; [6]
  Serratia marcescens MITC95: 0.5859 µM
[3]; [7]
  Escherichia coli MITC95: 0.3906 µM
VIM-1; VIM-1 IC50, VIM-1 enzyme, CCF2-FA fluorescence assay
  IC50: 4.07 nM
NDM-1; [9]
  IC50: 13.5 nM

## Nc1cnc(-c2cccc(S(N)(=O)=O)c2-c2nnn[nH]2)cn1 [Example 402, 3-(5-aminopyrazin-2-yl)-2-(1H-tetrazol-5-yl)benzenesulfonamide]
IMP-1; [4]
  IC50: 389 nM
[1]; [5]
  Klebsiella pneumoniae MITC95: 25 µM
[2]; [6]
  Serratia marcescens MITC95: 6.25 µM
[3]; [7]
  Escherichia coli MITC95: 0.3906 µM
VIM-1; [8]
  IC50: 349 nM
NDM-1; [9]
  IC50: 8.09 nM

## Cc1cccc(S(N)(=O)=O)c1-c1nnn[nH]1 [Example 150, 3-methyl-2-(1H-tetrazol-5-yl)benzenesulfonamide]
IMP-1; [16]
  IC50: 1940 nM
[1]
  Klebsiella pneumoniae expressing VIM-1 (IHMA 599644) MITC95: 200 µM
[2]
  Serratia marcescens expressing IMP-1 (CL5741) MITC95: 6.25 µM
[3]
  Escherichia coli expressing NDM-1 (CLB 30016) MITC95: 0.7813 µM
VIM-1; [17]
  IC50: 5650 nM
NDM-1; [16]
  IC50: 148 nM

## CNC1CC(N2CC(c3ccc(-c4ccc(C(F)(F)F)c(S(N)(=O)=O)c4-c4nnn[nH]4)cc3)C2)C1 (stereo not drawn) [Example 815, 4′-{1-[3-(methylamino)cyclobutyl]azetidin-3-yl}-2-(1H-tetrazol-5-yl)-4-(trifluoromethyl)biphenyl-3-sulfonamide]
IMP-1; [16]
  IC50: 6.01 nM
[1]; [18]
  Klebsiella pneumoniae MITC95: 100 µM
[2]; [19]
  Serratia marcescens MITC95: 3.125 µM
[3]; [20]
  Escherichia coli MITC95: 1.563 µM
VIM-1; [17]
  IC50: 18 nM
NDM-1; [16]
  IC50: 4.84 nM

## NC1CCC(N[C@H]2CC[C@H](c3ccc(C(F)(F)F)c(S(N)(=O)=O)c3-c3nnn[nH]3)CC2)C1 (stereo partly drawn) [Example 691, 3-{4-[(3-aminocyclopentyl)amino]cyclohexyl}-2-(1H-tetrazol-5-yl)-6-(trifluoromethyl)benzene sulfonamide]
IMP-1; [10]
  IC50: 51.8 nM
[1]; [11]
  Klebsiella pneumoniae MITC95: 3.125 µM
[2]; [12]
  Serratia marcescens MITC95: 3.125 µM
[3]; [13]
  Escherichia coli MITC95: 0.7813 µM
VIM-1; VIM-1 IC50, VIM-1 enzyme, CCF2-FA substrate
  IC50: 6.13 nM
NDM-1; [15]
  IC50: 10.6 nM

## NS(=O)(=O)c1c(C(F)(F)F)ccc(N2CCC(CCO)CC2)c1-c1nnn[nH]1 [Example 661, 3-[4-(2-hydroxyethyl)piperidin-1-yl]-2-(1H-tetrazol-5-yl)-6-(trifluoromethyl)benzenesulfonamide]
IMP-1; [10]
  IC50: 0.965 nM
[1]; [11]
  Klebsiella pneumoniae MITC95: 2.75 µM
[2]; [12]
  Serratia marcescens MITC95: 0.0625 µM
[3]; [13]
  Escherichia coli MITC95: 2.703 µM
VIM-1; [14]
  IC50: 0.22 nM
NDM-1; [15]
  IC50: 1.01 nM

## NS(=O)(=O)c1c(C(F)(F)F)ccc(-c2cccc3c2CCNC3)c1-c1nn[nH]n1 [Example 517, 3-(1,2,3,4-Tetrahydroisoquinolin-5-yl)-2-(2H-tetrazol-5-yl)-6-(trifluoromethyl)benzenesulfonamide]
IMP-1; [10]
  IC50: 37.2 nM
[1]; [11]
  Klebsiella pneumoniae MITC95: 1.563 µM
[2]; [12]
  Serratia marcescens MITC95: 3.125 µM
[3]; [13]
  Escherichia coli MITC95: 3.125 µM
VIM-1; [14]
  IC50: 0.937 nM
NDM-1; [15]
  IC50: 5.88 nM

## NS(=O)(=O)c1c(C(F)(F)F)ccc(-c2ccc(C3CCN(C4CC5(CCNCC5)C4)CC3)cc2)c1-c1nnn[nH]1 [Example 797, 4′-[1-(7-azaspiro[3.5]non-2-yl)piperidin-4-yl]-2-(1H-tetrazol-5-yl)-4-(trifluoromethyl)biphenyl-3-sulfonamide]
IMP-1; [16]
  IC50: 1.51 nM
[1]; [18]
  Klebsiella pneumoniae MITC95: 25 µM
[2]; [19]
  Serratia marcescens MITC95: 3.125 µM
[3]; [20]
  Escherichia coli MITC95: 3.125 µM
VIM-1; [17]
  IC50: 9.92 nM
NDM-1; [16]
  IC50: 5.57 nM
